“Also recorded” adds a separate entry of the source. Marks after values point to notes of the source that are not given here.
Columns and labels:
[1] = tested on: ovariectomized (OVX) Sprague-Dawley rats; test: In vivo rat OVX dose response study: bone μCT and bone strength
Method: Ninety female, 3-month old Sprague-Dawley rats were obtained. Eighty (80) of the rats were ovariectomized (OVX) and ten (10) underwent a sham OVX procedure (sham OVX) in which the ovaries were left in the animal. The OVX animals were randomly assigned into groups of ten for further experiments.
Following the actual or sham OVX procedure, all animals were untreated for 6 weeks to allow bone loss. After the 6 week period of bone loss, groups of animals were injected for a six- or eight-week period (daily for five days per week) with vehicle (saline) or 3, 10, or 30 μg/kg bear or human PTH1-34. […] The sham OVX group as well as one group of actual OVX rats were euthanized at six weeks while the remaining animals were euthanized at fourteen weeks following the OVX procedure. Samples were obtained from the euthanized animals for further analysis.
Three-dimensional images of bones were obtained using micro-computed tomography (μCT). The three-dimensional images were then used to quantify bone parameters, as explained below. The measurements were conducted on a 1.6 mm-thick region that begins at a position 2 mm from the growth plate (FIG. 8). Bone samples were obtained and analyzed from sham (FIG. 9A, “Sham OVX 6 weeks”) and actual (FIG. 9B, “OVX 6 weeks”) OVX rats that were euthanized at six weeks after the procedure, as well as a group of actual OVX rats that were euthanized at fourteen weeks after the procedure (FIG. 9C, “OVX 14 weeks”). The rats in the OVX 14 group were given injections of vehicle (saline) for 8 weeks following the 6 week bone loss period, in parallel with the PTH1-34 injections for eight weeks (FIGS. 9D, 9E, and 9F). The samples shown in FIGS. 9D, 9E, and 9F were obtained from rats that were injected for eight weeks following the 6 week bone loss period, with 3, 10, or 30 μg/kg black bear PTH1-34 (“bbPTH”), respectively.

MC-3T3 cells = test: Gene expression by real-time PCR in MC-3T3 cells (Example 11); format: cell-based; settings: 100 nM
Method: MC-3T3 cells were incubated in vehicle or 100 nM synthetic bear or human PTH 1-34 for 3 or 6 hours (n=2 or 4). Total RNA was isolated, and cDNA was generated with reverse transcription. Primers for the bone matrix proteins type I collagen and osteocalcin, the pro-apoptotic protein Bax, the anti-apoptotic protein Bcl-2, and the housekeeping genes Gapdh, β-actin, and cyclophillin were designed using PrimerQuest software (Integrated DNA Technologies, Coralville, Iowa). Real-time PCR was performed using the Mx3000P real-time PCR system (Stratagene, LaJolla, Calif.). All samples were measured in duplicate. Gene expression was determined using the relative standard curve method normalized to the geometric mean of the three housekeeping genes (Gapdh, β-actin, and cyclophillin). Apoptosis-related genes were analyzed as the expression ratio of Bax/Bcl-2, since a decrease in this ratio is associated with decreased apoptosis in vitro.

Male Swiss-Webster mice [2] = test: Cortical bone mineral content (ash fraction) and geometrical properties of the femur; format: in vivo, mouse; settings: femoral midshaft, 2.5 nmol/kg s.c., 8 weeks, normalized by body mass, SD in parentheses
Description: (§1) All handling procedures and experiments were approved by the Michigan Technological University Institutional Animal Care and Use Committees. Male Swiss-Webster mice were obtained from a commercial breeder (Harlan, Indianapolis, Ind.). All animals were maintained on a 12-h light/12-h dark cycle, and were permitted free access to water and food containing 0.95% calcium (Purina Rodent Diet #5001).
(§2) In the first experiment, 11 wk old mice received daily (5 days/week) subcutaneous injections of 2.5 nmol/kg PTH 1-34 (hPTH 1-34 or bbPTH 1-34) or acidic saline vehicle (0.15 M NaCl+0.001 N HCl) for 8 weeks (n=10 mice/group). In the second experiment, 12 wk old mice received daily (5 days/week) subcutaneous injections of 2.5 nmol/kg PTH 1-84 (hPTH 1-84 or bbPTH 1-84) or acidic saline vehicle for 8 weeks (n=10 mice/group). All PTH- and vehicle-treated animals received subcutaneous injections of calcein at a dosage of 10 mg/kg on days 12 and 3 before death to label mineralizing bone surfaces. Twenty-four hours following the last treatment injection, mice were sacrificed by carbon dioxide asphyxiation. Right femurs were fixed in 10% neutral buffered formalin. Left femurs were wrapped in 0.15M saline soaked gauze and stored at −20 deg C. Left tibias were stored in 70% ethanol at 4 deg C.
(§3) Following the bending test, the left femoral diaphyses were ashed in a furnace to determine mineral content (ash fraction). Right femoral diaphyses were embedded in methyl methacrylate and sectioned with a diamond saw to expose the midshaft cross-section. Images of the midshaft cross-sections were captured using a digital camera (Spot Insight QE, Diagnostic Instruments Inc., Sterling Heights, Mich.), and Scion Image analysis software (Scion Corporation, Frederick, Md.) was used to calculate the periosteal area (Ps.Ar), cortical area (Ct.Ar), and endosteal area (Es.Ar) for each sample. Cortical bone thickness (Ct.Th) was calculated in 0.1 mm increments for each anatomical quadrant and for the entire cross-section using image analysis software (Bioquant Osteo, Nashville, Tenn.). Thin sections from the midshaft of the right femur were ground to a thickness of 50 μm and mounted on glass slides. Images of calcein labels were captured at 100× magnification and periosteal and endosteal mineral apposition rates (Ps.MAR and Es.MAR, respectively) and mineralizing surfaces (Ps.MS/BS and Es.MS/MS) were quantified (Bioquant) for each femur.
(§4) All bone geometrical, architectural, and mineral properties were normalized by body mass to account for potential variation in animal size (31-33). Trabecular bone properties quantified by micro-computed tomography were compared by ANOVA between vehicle, bear, and human PTH-treated mice within each study (PTH 1-34 or PTH 1-84). The microCT parameters were not directly compared between the PTH 1-34 and PTH 1-84 studies because analyses were conducted on different microCT machines. For all other bone properties, all six experimental groups (from both the PTH 1-34 and PTH 1-84 studies) were compared with ANOVA and Fisher's PLSD. A significance of p<0.05 was used for all comparisons.

Male Swiss-Webster mice [3] = test: Cortical bone dynamic histomorphometry in the femur (calcein labels); format: in vivo, mouse; settings: femoral midshaft, 2.5 nmol/kg s.c., 8 weeks, SD in parentheses
Description: as §1, §2, §3, §4

Substance: human PTH 1-34 [hPTH 1-34]
- average thickness of the trabecular struts (Tb.Th) compared to vehicle-treated controls ([1]; OVX rats): significantly (p<0.05) increased
- increasing tibial cortical bone volume (BV), human vs bear ([1]; OVX rats): better than bear PTH1-34
- trabecular bone mineralization (M.Dn) vs vehicle (saline) alone ([1]; OVX rats): significantly (p<0.05) greater trabecular bone mineralization
- bone mineral apparent density, hPTH vs bbPTH ([1]; OVX rats, 30 μg/kg): significantly higher (p<0.05)
- bone mineral apparent density (App.Dn) vs vehicle (saline) alone ([1]; OVX rats, 3, 10, or 30 μg/kg): significantly higher (p<0.05)
- bone volume as a fraction of total volume (BV/TV) vs vehicle (saline) alone ([1]; OVX rats, 3, 10, or 30 μg/kg): significantly (p<0.05) greater bone volume fraction than treatment with vehicle (saline) alone at all three levels tested
- bone volume fraction, human PTH vs bear PTH ([1]; OVX rats, highest dose of 30 μg/kg): significantly (p<0.05) greater
- tibial cortical porosity relative to vehicle (saline) alone ([1]; OVX rats, middle (10 μg/kg) and higher doses (30 μg/kg)): significantly (p<0.05) decreased
- femoral cortical bone strength relative to vehicle-treated controls ([1]; OVX rats, only higher doses (30 μg/kg)): significant (p<0.05) increases
- expression ratio of Bax/Bcl-2 (MC-3T3 cells; 3 hours, n=4, bear vs human p=0.047): increases
- expression of type I collagen compared to the vehicle control (MC-3T3 cells; 6 hours): did not affect
- expression of osteocalcin compared to the vehicle control (MC-3T3 cells; 6 hours, n=2): substantially upregulated; also recorded: upregulate
- Ct.Ar (Male Swiss-Webster mice [2]): 30.7 (3.0) mm^2/kg
- Ct.Th (Male Swiss-Webster mice [2]): 2.22 (0.20)^b mm/kg
- Es.Ar (Male Swiss-Webster mice [2]): 24.7 (3.7) mm^2/kg
- Ps.Ar (Male Swiss-Webster mice [2]): 55.3 (5.2)^b,c mm^2/kg
- Endosteal MAR (Male Swiss-Webster mice [3]): 0.56 (0.18)
- Endosteal MS/BS (Male Swiss-Webster mice [3]): 39.3 (17.7)
- Periosteal MAR (Male Swiss-Webster mice [3]): 0.53 (0.21)
- Periosteal MS/BS (Male Swiss-Webster mice [3]): 24.0 (13.8)

Reference: patent publication US8987201B2, “Black bear parathyroid hormone and methods of using black bear parathyroid hormone” (Michigan Technological University, priority 2009, dated 2015)
